Test results as given in patent US11773109B2, “Composition for hardening soft tissue” (The Catholic University of Korea Industry—Academic …, priority 2016, dated 2023).
“Also recorded” adds a separate entry of the source.

How the values were obtained:
pancreas of mice [1] = experiment: Tension (suture-holding capacity) of the mouse pancreas after treatment, Newton dynamometer; assay type: in vivo; details: for response vs control in vivo at 1000 µM: fold of control, read-out: increase of the tension of the pancreas compared to the control
Method: Specifically, it means a force which occurs in an organ in response to an external force exerted by stretching or pulling action. The measurement of the tension according to the present invention is performed using a dynamometer. More specifically, the tension is determined by measuring suture-holding capacity using a Newton dynamometer. At this time, the tension is calculated by adding the weight of the tissue.
(§1) More specifically, three mice were treated with 1 mM of each of the antibiotics shown above, and three mice were treated with phosphate buffered saline (PBS) as a control.
(2) Measurement of Tensile
The tension of the pancreas was measured using a dynamometer. Specifically, a pancreatic fragment having a size of 1×1×1.5 cm was prepared, and then silk 4-0 suture was passed through the tissue to form a knob, and suture-holding capacity was measured using a Newton dynamometer. At this time, the tension was calculated by adding the weight of the tissue.

pancreas of mice [2] = experiment: Hardness (elastic modulus) of the mouse pancreas after treatment, hardness meter (Venustron); assay type: in vivo
Method: The measurement of the hardness according to the present invention is performed using a hardness meter, and measurement of the hardness of the pancreas is performed by measuring elastic modulus (EM) based on the Hooke's law and the Hertz's contact stress theory. The EM is a measure of the stiffness of an elastic material, and is expressed as the ratio of “the stress along the axis” and “the total strain along the axis within the range of the stress” by the Hooke's law.
as §1
(1) Measurement of Hardness
In order to measure the resistance of the pancreas using a hardness meter, the elastic modulus (EM) of the dissected pancreas was measured using Venustron (Axiom, Koriyama, Japan) based on the Hooke's law and the Hertz's contract stress theory, and the resistance of the pancreas was calculated using the following equation: […]
(F, force; v, Poisson's ratio; t, variant of compression; r, the diameter of a rigid spherical probe that presses an object vertically)

[3] = mouse pancreas treated with 1 mM of compound, compared to control (PBS / untreated), result in words
[4] = mouse pancreas treated with 1 mM of compound

| Structure (SMILES) | change in the tension of the pancreas compared to the control (pancreas of mice [1]; [3]) | change in the hardness of the pancreas compared to the control (pancreas of mice [2]; [3]) | increase of the hardness of the pancreas compared to the control (pancreas of mice [2]; mouse pancreas treated with 1 mM of compound, fold of control) | response vs control in vivo at 1000 µM (pancreas of mice [1]; [4]) | change in the hardness of the pancreas compared to the control (pancreas of mice [2]; mouse, in vivo) | change in the tension of the pancreas compared to the control (pancreas of mice [1]; mouse, in vivo) |
| --- | --- | --- | --- | --- | --- | --- |
| CC1(C)S[C@@H]2[C@H](NC(=O)Cc3ccccc3)C(=O)N2[C@H]1C(=O)O.[K+] [KRM-60027, Potassium (2S,5R,6R)-3,3-dimethyl-7-oxo-6-(2-phenylacetamido)-4-thia-1-azabicyclo[3.2.0]heptane-2-carboxylate, reference compound] | significantly increasing the tension; also recorded: had the effects of increasing the tension and hardness; also recorded: increased the tension of the pancreas to a significant level; also recorded: excellent effect on an increase in the tension; also recorded: significant increase in the tension | – | – | – | – | – |
| C=CCOC(=O)[C@@H]1N2C(=O)[C@@H](NC(=O)Cc3ccccc3)[C@H]2SC1(C)C [KRM-60028, Allyl (2S,5R,6R)-3,3-dimethyl-7-oxo-6-(2-phenylacetamido)-4-thia-1-azabicyclo[3.2.0]heptane-2-carboxylate] | both the hardness and tension of the pancreas increased | both the hardness and tension of the pancreas increased | – | – | – | – |
| CC1(C)S[C@@H]2[C@H](NC(=O)Cc3ccccc3)C(=O)N2[C@H]1C(=O)OCC1CCCCC1 [KRM-60029, Cyclohexylmethyl (2S,5R,6R)-3,3-dimethyl-7-oxo-6-(2-phenylacetamido)-4-thia-1-azabicyclo[3.2.0]heptane-2-carboxylate] | both the hardness and tension of the pancreas increased | both the hardness and tension of the pancreas increased | – | – | – | – |
| CC1(C)S[C@@H]2[C@H](NC(=O)Cc3ccccc3)C(=O)N2[C@H]1C(=O)OCCCC#N [KRM-60030, 3-cyanopropyl (2S,5R,6R)-3,3-dimethyl-7-oxo-6-(2-phenylacetamido)-4-thia-1-azabicyclo[3.2.0]heptane-2-carboxylate] | both the hardness and tension of the pancreas increased | both the hardness and tension of the pancreas increased | 1.5 times | 200% | – | – |
| CC1(C)S[C@@H]2[C@H](NC(=O)[C@H](N)c3ccccc3)C(=O)N2[C@H]1C(=O)[O-].[Na+] [KRM-60036, Sodium (2S,5R,6R)-6-((R)-2-amino-2-phenylacetamido)-3,3-dimethyl-7-oxo-4-thia-1-azabicyclo[3.2.0]heptane-2-carboxylate, reference compound] | had the effects of increasing the tension and hardness | significantly increased the hardness; also recorded: had the effects of increasing the tension and hardness; also recorded: excellent effect on an increase in the hardness | – | – | – | – |
| CC(C)(S)[C@@H](N)C(=O)O [KRM-60037, (S)-2-amino-3-mercapto-3-methylbutanoic acid, reference compound] | had the effects of increasing the tension and hardness | had the effects of increasing the tension and hardness | – | 150% | – | – |
| Oc1cccc2cccnc12 [KRM-60042, 8-hydroxyquinoline, reference compound] | – | – | – | – | significantly increases both the hardness and tension; also recorded: had the effects of increasing the tension and hardness; also recorded: increased both the hardness and tension of the pancreas to high levels; also recorded: excellent effects on increases in both the hardness and tension | significantly increases both the hardness and tension; also recorded: had the effects of increasing the tension and hardness; also recorded: increased both the hardness and tension of the pancreas to high levels; also recorded: excellent effects on increases in both the hardness and tension |
| CC(=O)N1CCN(c2ccc(OC[C@H]3CO[C@](Cn4ccnc4)(c4ccc(Cl)cc4Cl)O3)cc2)CC1 [KRM-60049, 1-(4-(4-(((2R,4S)-2-((1H-imidazol-1-yl)methyl)-2-(2,4-dichlorophenyl)-1,3-dioxolan-4-yl)methoxy)phenyl)piperazin-1-yl)ethanone, reference compound] | had the effects of increasing the tension and hardness; also recorded: increased both the hardness and tension of the pancreas to high levels | had the effects of increasing the tension and hardness; also recorded: increased both the hardness and tension of the pancreas to high levels | – | – | – | – |
| CC(C)(C)OC(=O)CCOC(=O)[C@@H]1N2C(=O)[C@@H](NC(=O)Cc3ccccc3)[C@H]2SC1(C)C [KRM-60077, 3-(tert-butoxy)-3-oxopropyl (2S,5R,6R)-3,3-dimethyl-7-oxo-6-(2-phenylacetamido)-4-thia-1-azabicyclo[3.2.0]heptane-2-carboxylate] | increased both the hardness and tension of the pancreas to significant levels | increased both the hardness and tension of the pancreas to significant levels | – | – | – | – |
| CC(C)COC(=O)[C@@H]1N2C(=O)[C@@H](NC(=O)Cc3ccccc3)[C@H]2SC1(C)C [KRM-60078, Isobutyl (2S,5R,6R)-3,3-dimethyl-7-oxo-6-(2-phenylacetamido)-4-thia-1-azabicyclo[3.2.0]heptane-2-carboxylate] | increased both the hardness and tension of the pancreas to significant levels | increased both the hardness and tension of the pancreas to significant levels | – | – | – | – |
| CCOCCOCCOC(=O)[C@@H]1N2C(=O)[C@@H](NC(=O)Cc3ccccc3)[C@H]2SC1(C)C [KRM-60080, 2-(2-ethoxyethoxy)ethyl (2S,5R,6R)-3,3-dimethyl-7-oxo-6-(2-phenylacetamido)-4-thia-1-azabicyclo[3.2.0]heptane-2-carboxylate] | increased both the hardness and tension of the pancreas to significant levels | increased both the hardness and tension of the pancreas to significant levels | – | – | – | – |
| CC(=O)OCC1=C(C(=O)O)N2C(=O)[C@@H](N)[C@H]2SC1 [KRM-60081, (6R,7R)-3-(acetoxymethyl)-7-amino-8-oxo-5-thia-1-azabicyclo[4.2.0]oct-2-ene-2-carboxylic acid] | increased both the hardness and tension of the pancreas to significant levels | increased both the hardness and tension of the pancreas to significant levels | – | – | – | – |
| CCn1cc(C(=O)O)c(=O)c2cnc(N3CCNCC3)nc21 [KRM-60082, 8-ethyl-5-oxo-2-(piperazin-1-yl)-5,8-dihydropyrido[2,3-d]pyrimidine-6-carboxylic acid] | increased both the hardness and tension of the pancreas to significant levels | increased both the hardness and tension of the pancreas to significant levels | – | – | – | – |
| COc1cc(Cc2cnc(N)nc2N)cc(OC)c1OC [KRM-60088, 5-(3,4,5-trimethoxybenzyl)pyrimidine-2,4-diamine] | increased both the hardness and tension of the pancreas to significant levels | increased both the hardness and tension of the pancreas to significant levels | – | – | – | – |
| O=C(O)c1cnc2cc(Cl)ccc2c1O [KRP-00001, 7-chloro-4-hydroxy-3-quinolinecarboxylic acid] | increased both the hardness and tension | increased both the hardness and tension | – | ≥ 150% | – | – |
| Oc1ccc(Cl)c2cccnc12 [KRP-00002, 5-chloro-8-hydroxyquinoline] | increased both the hardness and tension | increased both the hardness and tension | – | ≥ 150% | – | – |
| Oc1c(I)cc(Cl)c2cccnc12 [KRP-00003, 5-chloro-8-hydroxy-7-iodoquinoline] | increased both the hardness and tension | increased both the hardness and tension | – | ≥ 150% | – | – |
| Oc1c(I)cc(I)c2cccnc12 [KRP-00004, 5,7-diiodo-8-hydroxyquinoline] | increased both the hardness and tension | increased both the hardness and tension | – | ≥ 150% | – | – |
| O=C(O)c1cc(O)c2cccc(O)c2n1 [KRP-00005, 4,8-dihydroxyquinoline-2-carboxylic acid] | increased both the hardness and tension | increased both the hardness and tension | – | ≥ 150% | – | – |
| Oc1cc2ccccc2cn1 [KRP-00010, 3-hydroxyisoquinoline] | – | – | – | ~240% | – | – |
